Test results: patent publication US20240109853A1 (Shanghai Yao Yuan Biotechnology Co., Ltd., priority 2020, published 2024)
Where a name gives a salt, the structure may show the parent alone.

Assays:
[1] = tested on: ALPK1-dependent NFκB reporter gene activation in HEK293 cells stably expressing an NF-kB reporter (G9 cells); assay: NFκB gene reporter alkaline phosphatase assay; type: cell-based; settings: Homo sapiens, HEK293; read-out: NFkB assay IC50
In short: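 Inhibition of ALPK1-driven NF-kB activation is measured as reduced reporter phosphatase activity after agonist challenge with D-glycero-D-manno-6-fluoro-heptose-1β-S-ADP. Cells receive serially diluted compound 30 min beforehand. Values are IC50s from non-linear regression.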

ALPK1 = ALPK1 (Homo sapiens (Human), UniProt Q96QP1); assay: ALPK1 in vitro kinase assay (HTRF of TIFA phosphorylation); type: biochemical
Sequence of ALPK1 (Q96QP1 whole entry): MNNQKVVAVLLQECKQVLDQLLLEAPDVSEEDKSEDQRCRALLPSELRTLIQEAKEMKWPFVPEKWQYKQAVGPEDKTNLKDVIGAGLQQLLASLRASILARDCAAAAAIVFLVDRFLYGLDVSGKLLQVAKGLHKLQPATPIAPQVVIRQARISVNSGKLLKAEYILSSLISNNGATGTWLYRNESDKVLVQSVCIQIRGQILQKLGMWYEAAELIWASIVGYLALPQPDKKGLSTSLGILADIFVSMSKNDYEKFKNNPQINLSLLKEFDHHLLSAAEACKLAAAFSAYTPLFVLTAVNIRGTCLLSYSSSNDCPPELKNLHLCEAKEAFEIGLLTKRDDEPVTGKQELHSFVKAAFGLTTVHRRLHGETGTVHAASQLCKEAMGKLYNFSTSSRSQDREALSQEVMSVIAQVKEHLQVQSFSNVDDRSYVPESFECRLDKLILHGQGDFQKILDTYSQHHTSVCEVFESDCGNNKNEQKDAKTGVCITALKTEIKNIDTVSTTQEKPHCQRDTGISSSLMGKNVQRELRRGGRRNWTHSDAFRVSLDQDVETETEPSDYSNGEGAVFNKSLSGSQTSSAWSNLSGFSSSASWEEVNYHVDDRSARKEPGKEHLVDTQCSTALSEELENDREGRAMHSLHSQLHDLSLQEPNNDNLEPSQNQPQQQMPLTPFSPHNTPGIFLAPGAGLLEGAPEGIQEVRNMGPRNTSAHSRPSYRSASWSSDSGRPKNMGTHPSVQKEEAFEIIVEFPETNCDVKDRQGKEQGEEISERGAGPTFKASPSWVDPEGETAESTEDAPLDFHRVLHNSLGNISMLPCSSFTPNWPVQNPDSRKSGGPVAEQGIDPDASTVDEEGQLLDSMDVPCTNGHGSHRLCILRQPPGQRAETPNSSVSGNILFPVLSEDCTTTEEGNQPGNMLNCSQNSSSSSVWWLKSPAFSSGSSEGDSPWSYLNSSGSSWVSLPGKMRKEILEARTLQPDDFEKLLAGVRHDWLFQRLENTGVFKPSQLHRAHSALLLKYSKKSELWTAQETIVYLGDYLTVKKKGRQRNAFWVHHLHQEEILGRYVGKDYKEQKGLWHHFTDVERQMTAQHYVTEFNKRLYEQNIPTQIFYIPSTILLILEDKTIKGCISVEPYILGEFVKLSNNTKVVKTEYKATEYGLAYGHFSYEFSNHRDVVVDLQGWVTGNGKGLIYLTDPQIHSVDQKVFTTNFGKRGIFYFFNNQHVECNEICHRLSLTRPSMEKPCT

| Structure (SMILES) | IC50 [1] [µM] | IC50 (ALPK1) [µM] |
| --- | --- | --- |
| COc1ccc(C(C)(C)c2csc(NC(=O)NCc3ccc(C(=O)NCCN)nc3)n2)cc1 [Example A203, N-(2-aminoethyl)-5-((3-(4-(2-(4-methoxyphenyl)propan-2-yl)thiazol-2-yl)ureido)methyl)picolin-amide] | 5.7 | 0.094 |
| CC(C)(c1ccc(Br)cc1)c1csc(NC(=O)NCc2ccc(N3CCC(N)CC3)cc2)n1 [Example A204, 1-(4-(4-aminopiperidin-1-yl)benzyl)-3-(4-(2-(4-bromophenyl)propan-2-yl)thiazol-2-yl)urea] | 1.89 | 0.009 |
| CC(C)(c1ccc(Br)cc1)c1csc(NC(=O)NCc2ccc(NCCN)cc2)n1 [Example A205, 1-(4-((2-aminoethyl)amino)ben-zyl)-3-(4-(2-(4-bromophenyl)propan-2-yl)thiazol-2-yl)urea] | 1.48 | 0.059 |
| CC(C)(c1ccc(Br)cc1)c1csc(NC(=O)NCc2ccnc(N3CCNCC3)c2F)n1 [Example A207, 1-(4-(2-(4-bromophenyl)propan-2-yl)thiazol-2-yl)-3-((3-fluoro-2-(piperazin-1-yl)pyridin-4-yl)methyl)urea] | 2.18 | 0.099 |
| COc1ccc(C(C)(C)c2csc(NC(=O)NCc3cnc(N4CCN(CCO)CC4)nc3)n2)cc1 [Example A208, 1-((2-(4-(2-hydroxyethyl)piperazin-1-yl)pyrimidin-5-yl)methyl)-3-(4-(2-(4-methoxyphenyl)propan-2-yl)thiazol-2-yl)urea] | 0.76 | 0.078 |
| CC(C)(c1ccc(Br)cc1)c1csc(NC(=O)NCCN)n1 [Example A210, 1-(2-aminoethyl)-3-(4-(2-(4-bromophenyl)propan-2-yl)thiazol-2-yl)urea] | 4.16 | 0.095 |
| CC(C)(c1ccc(Br)cc1)c1csc(NC(=O)NCc2ccc(N3CCC(CN)CC3)cc2)n1 [Example A211, 1-(4-(4-(aminomethyl)piperidin-1-yl)benzyl)-3-(4-(2-(4-bromophenyl)propan-2-yl)thiazol-2-yl)urea] | 2.59 | 0.094 |
| CC(C)(c1ccc(Br)cc1)c1csc(NC(=O)NCc2ccc(OCCN)cc2)n1 [Example A212, 1-(4-(2-aminoethoxy)benzyl)-3-(4-(2-(4-bromophenyl)propan-2-yl)thiazol-2-yl)urea] | 2.75 | 0.289 |
| CC1CN(c2ccc(CNC(=O)Nc3nc(C(C)(C)c4ccc(Br)cc4)cs3)cc2)CC(C)N1 (stereo not drawn) [Example A213, 1-(4-(2-(4-bromophenyl)propan-2-yl)thiazol-2-yl)-3-(4-(3,5-dimethylpiperazin-1-yl)benzyl)urea] | 6.38 | 0.009 |
| CC(C)(c1ccc(Br)cc1)c1csc(NC(=O)NCc2ccc(CN3CCNCC3)c(F)c2)n1 [Example A214, 1-(4-(2-(4-bromophenyl)propan-2-yl)thiazol-2-yl)-3-(3-fluoro-4-(piperazin-1-ylmethyl)benzyl)urea] | 1.56 | 0.04 |
| COc1ccc(C(C)(C)c2csc(NC(=O)NCc3cnc(N4CCC(C(N)=O)CC4)nc3)n2)cc1 [Example A215, 1-(5-((3-(4-(2-(4-methoxyphenyl)propan-2-yl)thiazol-2-yl)ureido)methyl)pyrimi-din-2-yl)piperidine-4-carboxamide] | 2.21 | 0.15 |
| COc1ccc(C(C)(C)c2csc(NC(=O)NCc3cnc(N4CCN(CCO)CC4)c(F)c3)n2)cc1 [Example A216, 1-((5-fluoro-6-(4-(2-hydroxyethyl)piperazin-1-yl)pyridin-3-yl)methyl)-3-(4-(2-(4-methoxyphenyl)propan-2-yl)thiazol-2-yl)urea] | 1.43 | 0.061 |
| COc1ccc(C(C)(C)c2csc(NC(=O)NCc3ccc(C(=O)N4CCC(N)C4)nc3)n2)cc1 (stereo not drawn) [Example A217, 1-((6-(3-aminopyrrolidine-1-carbonyl)pyridin-3-yl)methyl)-3-(4-(2-(4-methoxyphenyl)propan-2-yl)thiazol-2-yl)urea] | 32.6 | 0.056 |
| COc1ccc(C(C)(C)c2csc(NC(=O)NCc3ccc(C(=O)NCCN)cc3)n2)cc1 [Example A218, N-(2-aminoethyl)-4-((3-(4-(2-(4-methoxyphenyl)propan-2-yl)thiazol-2-yl)ureido)methyl)benza-mide] | 6.71 | 0.029 |
| CC(C)(c1ccc(Br)cc1)c1csc(NC(=O)NCc2ccc(N3CCNCC3)c(Cl)c2)n1 [Example A219, 1-(4-(2-(4-bromophenyl)propan-2-yl)thiazol-2-yl)-3-(3-chloro-4-(piperazin-1-yl)benzyl)urea] | 2.73 | 0.046 |
| COc1cc(CNC(=O)Nc2nc(C(C)(C)c3ccc(Br)cc3)cs2)ccc1N1CCNCC1 [Example A220, 1-(4-(2-(4-bromophenyl)propan-2-yl)thiazol-2-yl)-3-(3-methoxy-4-(piperazin-1-yl)benzyl)urea] | 1.32 | 0.044 |
| CC(C)Oc1cc(CNC(=O)Nc2nc(C(C)(C)c3ccc(Br)cc3)cs2)ccc1N1CCNCC1 [Example A221, 1-(4-(2-(4-bromophenyl)propan-2-yl)thiazol-2-yl)-3-(3-isopropoxy-4-(piperazin-1-yl)benzyl)urea] | 2.38 | 0.144 |

| Structure (SMILES) | IC50 [1] [µM] | IC50 (ALPK1) [µM] |
| --- | --- | --- |
| COc1ccc(C(C)(C)c2csc(NC(=O)NCc3cnc(N4CCNCC4)nc3C)n2)cc1 [Example A223, 1-(4-(2-(4-methoxyphenyl)propan-2-yl)thiazol-2-yl)-3-((4-methyl-2-(piperazin-1-yl)pyrimidin-5-yl)methyl)urea] | 0.76 | 0.049 |
| COc1ccc(C(C)(C)c2csc(NC(=O)NCc3ccc(C4CCNCC4)c(F)c3)n2)cc1 [Example A224, 1-(3-fluoro-4-(piperidin-4-yl)benzyl)-3-(4-(2-(4-methoxyphenyl)propan-2-yl)thiazol-2-yl)urea] | 0.73 | 0.021 |
| COc1ccc(C(C)(C)c2csc(NC(=O)NCc3ccc(N4CCNCC4)c(OC(C)C)c3)n2)cc1 [Example A225, 1-(3-isopropoxy-4-(piperazin-1-yl)benzyl)-3-(4-(2-(4-methoxyphenyl)propan-2-yl)thiazol-2-yl)urea] | 1.05 | 0.108 |
| COc1ccc(C(C)(C)c2csc(NC(=O)NCCCN3CCC(N)C3)n2)cc1 (stereo not drawn) [Example A226, 1-(3-(3-aminopyrrolidin-1-yl)propyl)-3-(4-(2-(4-methoxyphenyl)propan-2-yl)thiazol-2-yl)urea] | 4.82 | 0.1 |
| COc1ccc(C(C)(C)c2csc(NC(=O)NCCN3CCC(N)C3)n2)cc1 (stereo not drawn) [Example A227, 1-(2-(3-aminopyrrolidin-1-yl)ethyl)-3-(4-(2-(4-methoxyphenyl)propan-2-yl)thiazol-2-yl)urea] | 3.12 | 0.138 |
| COc1ccc(C(C)(C)c2csc(NC(=O)NCCCN3CCNC(C)C3)n2)cc1 (stereo not drawn) [Example A228, 1-(4-(2-(4-methoxyphenyl)propan-2-yl)thiazol-2-yl)-3-(3-(3-methylpiperazin-1-yl)propyl)urea] | 3.86 | 0.1 |
| COc1ccc(C(C)(C)c2csc(NC(=O)NCCCS(=O)(=O)N3CCC(N)C3)n2)cc1 (stereo not drawn) [Example A229, 1-(3-((3-aminopyrrolidin-1-yl)sulfonyl)propyl)-3-(4-(2-(4-methoxyphenyl)propan-2-yl)thiazol-2-yl)urea] | 2.27 | 0.169 |
| COc1ccc(C(C)(C)c2csc(NC(=O)NCCCS(=O)(=O)N3CCNCC3)n2)cc1 [Example A230, 1-(4-(2-(4-methoxyphenyl)propan-2-yl)thiazol-2-yl)-3-(3-(piperazin-1-ylsulfonyl)propyl)urea] | 3.01 | 0.127 |
| COc1ccc(C(C)(C)c2csc(NC(=O)NCc3cc(F)c(N4CCNCC4)cc3F)n2)cc1 [Example A231, 1-(2,5-difluoro-4-(piperazin-1-yl)benzyl)-3-(4-(2-(4-methoxyphenyl)propan-2-yl)thiazol-2-yl)urea hydrochloride] | 3.36 | 0.027 |
| COc1ccc(C(C)(C)c2csc(NC(=O)NCc3cc(F)c(N4CC5CC(C4)N5)c(F)c3)n2)cc1 [Example A232] | 0.59 | 0.088 |
| COc1ccc(C(C)(C)c2csc(NC(=O)N3CC(c4ccc(N5CCNCC5)cc4)C3)n2)cc1 [Example A233, N-(4-(2-(4-methoxyphenyl)propan-2-yl)thiazol-2-yl)-3-(4-(piperazin-1-yl)phenyl)azetidine-1-carboxamide] | 0.33 | 0.043 |
| O=C(Nc1nc(C2(c3ccc(Br)cc3)CCCC2)cs1)N1CC(c2ccc(N3CCNCC3)c(F)c2)C1 [Example A236, N-(4-(1-(4-bromophenyl)cyclopent-yl)thiazol-2-yl)-3-(3-fluoro-4-(piperazin-1-yl)phenyl)azetidine-1-carboxamide] | 4.5 | 0.013 |
| C#CC(C)(c1ccc(Br)cc1)c1csc(NC(=O)N2CC(c3ccc(N4CCNCC4)cc3)C2)n1 (stereo not drawn) [Example A237, N-(4-(2-(4-bromophenyl)but-3-yn-2-yl)thiazol-2-yl)-3-(4-(piperazin-1-yl)phenyl)azetidine-1-carboxamide] | 0.61 | 0.007 |
| C#CC(C)(c1ccc(Br)cc1)c1csc(NC(=O)NCC2(O)CCNCC2)n1 (stereo not drawn) [Example A238, 1-(4-(2-(4-bromophenyl)but-3-yn-2-yl)thiazol-2-yl)-3-((4-hydroxypiperidin-4-yl)methyl)urea] | 27 | 0.019 |
| COc1ccc(C(C)(C)c2csc(NC(=O)NC3(c4ccc(N5CCNCC5)cc4)CC3)n2)cc1 [Example A240, 1-(4-(2-(4-methoxyphenyl)propan-2-yl)thiazol-2-yl)-3-(1-(4-(piperazin-1-yl)phenyl)cyclopropyl)u-rea] | 1.88 | 0.097 |
| CCNC(=O)Nc1nc(C(C)(C)c2ccc(Br)cc2)cs1 [Example A241, 1-(4-(2-(4-bromophenyl)propan-2-yl)thiazol-2-yl)-3-ethylurea] | 3.41 | 0.098 |
